The source of these data is EP3470068B1, “ANTIBACTERIAL COMPOSITIONS WITH ENHANCED ACTIVITY” (Università degli Studi di Parma, priority 2017, dated 2019).

SMILES strings stand for the structures. Peptide text beside a SMILES is read from it.

The test system of test [1] is Malassezia pachydermatis DSMZ 6172. The test is described as follows: MIC by serial microdilution in liquid culture. The class given is cell-based. To be noted: M. pachydermatis DSMZ 6172; phosphate buffer 10 mM with 40% Müller Hinton broth, 48 hours at 37°C. As for the experimental part: (§1) For each fungal strain 3-5 morphologically similar colonies were collected from fresh cultures, inoculated in Brain Heart Infusion broth medium and then incubated at 37°C in agitation at 225 r.p.m. for 6-8 hours. Subsequently, the fungal suspension was centrifuged at 1000 r.p.m. for 20 minutes and the obtained pellet was resuspended in phosphate buffer 10 mM and diluted to a turbidity equal to 5 of McFarland standard, corresponding to a concentration of 10^8 CFU/ml. Fungal suspension was diluted 1:100 in phosphate buffer 10 mM, then, within 30 minutes, 50 µl of this bacterial suspension (10^6 CFU/ml) were inoculated in each well of microtiter plate to obtain a final concentration of about 5 x 10^5 CFU/ml.
(§2) The different molecules were tested for their ability to inhibit bacterial and fungal growth in broth culture. Single molecules were diluted in phosphate buffer 10 mM with 40% of Müller Hinton broth. 50 µl of diluted molecules were added to microtiter U plate wells with phosphate buffer and 40% of Müeller Hinton broth and a suspension of one of these strains: Escherichia coli ATCC 25922, Pseudomonas aeruginosa ATCC 27853, Staphylococcus aureus ATCC 25923, MRSA ATCC 43300, Candida albicans ATCC 11006 or Malassezia pachydermatis DSMZ 6172. […]
Background: In broth dilution the organism is exposed to a series of concentrations in liquid medium.

The subject of test [2] is Candida albicans ATCC 11006. The experiment in a line: MIC by serial microdilution in liquid culture. The class given is cell-based. The conditions noted are these: C. albicans ATCC 11006; phosphate buffer 10 mM with 40% Müller Hinton broth, 48 hours at 37°C. As for the experimental part: as §1, §2
The subject of test [3] is Pseudomonas aeruginosa ATCC 27853. The experiment in a line: MIC by serial microdilution in liquid culture. In kind it is cell-based. The conditions noted are these: P. aeruginosa ATCC 27853; phosphate buffer 10 mM with 40% Müller Hinton broth, 24 hours at 37°C. As for the experimental part:
(§3) For each bacterial strain 3-5 morphologically similar colonies from fresh cultures were taken, inoculated in Brain Heart Infusion broth medium and then incubated at 37°C in agitation at 225 r.p.m. for about 3-4 hours. Subsequently, the bacterial suspension was centrifuged at 1000 r.p.m. for 20 minutes and the obtained pellet was resuspended in phosphate buffer 10 mM. Turbidity of the bacterial suspension was measured by evaluating the absorbance using a spectrophotometer at 600 nm. The range 0,08-0,13 equates to a concentration of about 10^8 CFU/ml. The bacterial suspension was diluted 1:100 in phosphate buffer 10 mM, then, within 30 minutes, 50 µl of this bacterial suspension (10^6 CFU/ml) were inoculated in each well of the microtiter plate to obtain a final bacterial concentration of about 5 x 10^5 CFU/ml.
(§4) The different molecules were tested for their ability to inhibit bacterial and fungal growth in broth culture. Single molecules were diluted in phosphate buffer 10 mM with 40% of Müller Hinton broth. 50 µl of diluted molecules were added to microtiter U plate wells with phosphate buffer and 40% of Müeller Hinton broth and a suspension of one of these strains: Escherichia coli ATCC 25922, Pseudomonas aeruginosa ATCC 27853, Staphylococcus aureus ATCC 25923, MRSA ATCC 43300, Candida albicans ATCC 11006 or Malassezia pachydermatis DSMZ 6172.
(§5) For bacterial strains the different molecules were tested at the following concentrations: • NCP-3: from 0,2 µg/ml to 50 µg/ml • Benzalkonium chloride: from 0,00008% to 0,04% • Thimerosal: from 0,0008% to 0,4% • Tris/EDTA: from 0,4%/0,1% to 0,0008%/0,0002%
(§6) Bacterial and fungal growth controls were cultured in absence of antimicrobial molecules. Microtiter plates were incubated 24 or 48 hours (bacterial and fungal strains, respectively) at 37°C and subsequently MIC was determined for each molecule against each strain.

Test [4] has as its system Staphylococcus aureus ATCC 25923. The experiment in a line: MIC by serial microdilution in liquid culture. To be noted: S. aureus ATCC 25923; phosphate buffer 10 mM with 40% Müller Hinton broth, 24 hours at 37°C. The class given is cell-based. As for the experimental part:
as §3, §4, §5, §6

Test [5] has as its system Escherichia coli ATCC 25922. The test is described as follows: MIC by serial microdilution in liquid culture. In kind it is cell-based. To be noted: E. coli ATCC 25922; phosphate buffer 10 mM with 40% Müller Hinton broth, 24 hours at 37°C. As for the experimental part: as §3, §4, §5, §6
The test system of test [6] is Malassezia pachydermatis DSMZ 6172. The experiment in a line: LD90/LD99 by microdilution and agar plating (CFU count). The class given is cell-based. The conditions noted are these: M. pachydermatis DSMZ 6172; two hours contact at 37°C, plated on Sabouraud agar, CFU counted. As for the experimental part: as §1, with “The fungal” for “Fungal”
(§7) Different molecules were tested for their ability to inhibit bacterial and fungal growth in broth culture. 50 µl of molecules at the indicated below concentrations were added to microtiter U plate 96 wells with phosphate buffer and a suspension of one of these strains: Escherichia coli ATCC 25922, Pseudomonas aeruginosa ATCC 27853, Staphylococcus aureus ATCC 25923, MRSA ATCC 43300, Candida albicans ATCC 11006 or Malassezia pachydermatis DSMZ 6172.
(§8) The following concentrations of the different molecules were tested: • NCP-3: from 0,2 µg/ml to 50 µg/ml • Benzalkonium chloride: from 0,00008% to 0,04% • Thimerosal: from 0,0008% to 0,4% • Tris/EDTA: from 0,4%/0,1% to 0,0008%/0,0002%
(§9) The bacterial or fungal suspension has been contacted for two hours with the different antimicrobial molecules at 37°C. After incubation, 20 µl of solution were withdrawn from each dilution and plated on agar medium, Columbia with 5% of bovine erythrocytes for bacterial strains and Sabouraud agar for fungal strains. The inoculum was uniformly distributed on agar plates with a sterile disposable handle. After incubation at 37°C for 24 hours for bacterial strains and 48 hours for fungal strains, colonies (CFU) were counted.

The subject of test [7] is Candida albicans ATCC 11006. The description is as above. In kind it is cell-based. The conditions noted are these: C. albicans ATCC 11006; two hours contact at 37°C, plated on Sabouraud agar, CFU counted. As for the experimental part: as §1, with “The fungal” for “Fungal”
as §7, §8, §9

Test [8] relates to MRSA ATCC 43300. Described as above. The class given is cell-based, Methicillin Resistant Staphylococcus aureus (MRSA). The conditions noted are these: two hours contact at 37°C, plated on agar, CFU counted. As for the experimental part: as §3, with “colonies were collected” for “colonies”, “fresh cultures,” for “fresh cultures were taken,”, “CFU/ml. the” for “CFU/ml. The”
Different molecules were tested for their ability to inhibit bacterial and fungal growth in broth culture. […]
The bacterial or fungal suspension has been contacted for two hours with the different antimicrobial molecules at 37°C. […] After incubation at 37°C for 24 hours for bacterial strains and 48 hours for fungal strains, colonies (CFU) were counted.

The test system of test [9] is Gram positive bacteria. The test is described as follows: MIC by serial microdilution. The conditions noted are these: used alone. In kind it is cell-based. As for the experimental part: as §3, §2
The subject of test [10] is Gram negative. The test is described as follows: MIC by serial microdilution. In kind it is cell-based. The conditions noted are these: used alone. As for the experimental part:
as §3, §2

Test [11] concerns MRSA ATCC 43300. The experiment in a line: MIC by serial microdilution in liquid culture. In kind it is cell-based, Methicillin Resistant Staphylococcus aureus (MRSA). The conditions noted are these: phosphate buffer 10 mM with 40% Müller Hinton broth, 24 hours at 37°C. As for the experimental part:
as §3, §2

In test [12] the test system is Pseudomonas aeruginosa ATCC 27853. The test is described as follows: LD90/LD99 by microdilution and agar plating (CFU count). The conditions noted are these: P. aeruginosa ATCC 27853; two hours contact at 37°C, plated on agar, CFU counted. The class given is cell-based. As for the experimental part:
as §3, with “colonies were collected” for “colonies”, “fresh cultures,” for “fresh cultures were taken,”, “CFU/ml. the” for “CFU/ml. The”
as §7, §8, §9

The subject of test [13] is Staphylococcus aureus ATCC 25923. The test is described as above. To be noted: S. aureus ATCC 25923; two hours contact at 37°C, plated on agar, CFU counted. In kind it is cell-based. As for the experimental part:
as §3, with “colonies were collected” for “colonies”, “fresh cultures,” for “fresh cultures were taken,”, “CFU/ml. the” for “CFU/ml. The”
as §7, §8, §9

In test [14] the test system is Escherichia coli ATCC 25922. The test is described as above. The class given is cell-based. To be noted: E. coli ATCC 25922; two hours contact at 37°C, plated on agar, CFU counted. As for the experimental part: as §3, with “colonies were collected” for “colonies”, “fresh cultures,” for “fresh cultures were taken,”, “CFU/ml. the” for “CFU/ml. The”
as §7, §8, §9

Turning to `CC[C@H](C)[C@H](NC(=O)[C@H](CCCCN)NC(=O)[C@H](Cc1ccc(O)cc1)NC(=O)[C@H](Cc1ccccc1)NC(=O)[C@H](CC(C)C)NC(=O)[C@H](CC(N)=O)NC(=O)[C@H](CCCCN)NC(=O)[C@@H](NC(=O)[C@H](C)NC(=O)[C@@H]1CCCN1C(=O)[C@@H](NC(=O)[C@@H](NC(=O)[C@H](CCCCN)NC(=O)[C@H](CO)NC(=O)[C@H](CC(C)C)NC(=O)[C@@H](NC(=O)[C@H](Cc1c[nH]c2ccccc12)NC(=O)[C@@H](NC(=O)[C@H](CC(C)C)NC(=O)[C@@H](N)CCCCN)[C@@H](C)CC)[C@@H](C)CC)[C@@H](C)O)[C@@H](C)CC)[C@@H](C)CC)C(=O)O` [NCP-3] (H-KLIWILSKTIPAIKNLFYKI-OH), the MIC in test [1] is listed as 3,1 µg/ml; in test [2], 12,5 µg/ml; in [3], 6,3 µg/ml; in [4], 3,1 µg/ml; in test [5], 6,3 µg/ml; in test [9] it was 3,2 µg/ml. Besides, the MIC in [10] and in [11] was 6,3 µg/ml each time. For the same compound, the LD90 in test [6] is recorded as >1,6 µg/ml; in [7] it was >6,3 µg/ml; in test [8] it was 6,3 µg/ml; in test [12], 6,3 µg/ml; in [13], >1,6 µg/ml; in test [14], 6,3 µg/ml. Besides, the LD99 in test [6] was 3,2 µg/ml; in [7], 12,5 µg/ml; in [8], 12,5 µg/ml; in [12], 12,5 µg/ml; in [13] it was 6,3 µg/ml; in test [14], 12,5 µg/ml.
